From US20240100021A1, “Combination Therapy Schedules to Treat Cancer” (priority 2021, published 2024)
Read-outs that look alike come from different tables or passages of the source.

What was measured:
[1] = cited from earlier work
[2] = predominantly to albumin; cited from earlier work
[3] = isolated human hepatocytes, in vitro; cited from earlier work
OCI-AML3 cells = assay: MTT cell proliferation assay; format: cell-based; conditions: continuous exposure 48 hrs, 0.038 μM Bis, 0.26 μM Ara-C, 0.3 μM ABT199, 14 nM Clad, alone or combined, versus control cells
MOLM14 cells = assay: MTT cell proliferation assay; format: cell-based; conditions: 48 hrs, 0.038 μM Bis, 0.45 uM Ara-C, 6.3 nM ABT199, alone or combined, versus control
[4] = animals; cited from earlier work
[5] = tested on: tumor-cytostatic macrophages; conditions: activation of tumor-cytostatic macrophages (Wang et al. 1984); cited from earlier work
double-stranded DNA = conditions: physiological conditions; cited from earlier work
[6] = cited from earlier work; remark: listed apart in the source
[7] = cited from earlier work; remark: listed apart in the source
[8] = cited from earlier work; remark: listed apart in the source
[9] = patients receiving the drug (Myers et al. 1984); cited from earlier work
[10] = cancer patients, cited from earlier work
[11] = cited from earlier work; remark: listed apart in the source
[12] = tested on: PARP1 and caspase 3 cleavage in MOLM14 cells; assay: Western blot of apoptosis markers; format: cell-based; conditions: 48 hrs
[13] = cited from earlier work; remark: listed apart in the source
[14] = pediatric ALL or AML, 52 mg/m^2, noncompartmental analysis
[15] = 90 min infusion, 260 mg/m^2, biphasic elimination
[16] = 5 day schedule of 60 min infusions
[17] = three phases of elimination (Alberts et al. 1983)
[18] = trial with doses of 80-250 mg/m^2
[19] = triphasic elimination, first of three single dose studies
[20] = triphasic elimination, last of three single dose studies
[21] = triphasic elimination, second of three single dose studies
[22] = hairy cell leukemia, 0.09 mg/kg/day continuous intravenous infusion over 7 days

For `Nc1nc(Cl)nc2c1ncn2[C@@H]1O[C@H](CO)[C@@H](O)[C@@H]1F` [clofarabine, 2-Chloro-9-(2-deoxy-2-fluoro-beta-D-arabinofuranosyl)-9H-purin-6-amine], the “dose excreted in the urine unchanged” value ([1]; 24-hour urine collections, pediatric studies) is listed as 49-60%, the systemic clearance [1, 14] is listed as 28.8 L/h/m^2 and the “volume of distribution at steady-state” value [1, 14] is listed as 172 L/m^2. The terminal half-life ([1]; pediatric ALL or AML, 52 mg/m^2) was 5.2 h, the “bound to plasma proteins” value [2] was 47% and the metabolism [3] was 0.2%.

In the case of `C(=N\NC1=NCCN1)/c1c2ccccc2c(/C=N/NC2=NCCN2)c2ccccc12.Cl.Cl` [Bis, 9,10-anthracenedicarboxaldehyde bis[(4,5-dihydro-1H-imidazol-2-yl)hydrazine] dihydrochloride], the cell proliferation (OCI-AML3 cells) is listed as 80%, the cell proliferation (MOLM14 cells) is listed as 79% and the cardiotoxicity [4] is listed as “not cardiotoxic”. The “minimal effective in vivo dose” value [5] was 25 mg/kg, the affinity constants (double-stranded DNA) was “above 10^6 M^−1” and the plasma concentration ([6]; 72-hr infusion study, dose 56 mg/m^2) was 12 ± 6 ng/mL. For the same compound, the plasma concentration ([6]; 72-hr infusion study, dose 260 mg/m^2) was 55 ± 8 ng/mL, the plasma clearance ([6]; 72-hr infusion study) was 1306±179 ml/min/m^2 and the “urinary excretion of the dose” value ([6]; 72-hr infusion study, in 24 hr) was 4.6%. The “administered dose excreted unchanged in the urine” value ([6]; 90 min infusion, 260 mg/m^2, after 24 hr) was 11.3%, the initial half-life [6, 15] was 1.08 ± 0.25 h and the terminal half-life [6, 15] was 19.03 ± 3.77 h. The plasma clearance ([6]; 90 min infusion, 260 mg/m^2) was 735 ml/min/m^2, the “steady state volume of distribution (Vdss)” value ([6]; 90 min infusion, 260 mg/m^2) was 1845 L/m^2 and the “dose excreted in the urine” value [6, 16] was 7.1%. The “t½ α” value [6, 16] was 0.9 h, the “t½ β” value [6, 16] was 9.7 h and the “dose excreted in the urine” value ([6]; human, in vivo) was “Less than 7%”. The “area under the plasma concentration x time curve” value ([6]; intravenous dose 260 mg/m^2) was 4400 µg·h/mL, the “area under the plasma concentration x time curve” value ([6]; intravenous dose 340 mg/m^2) was 5700 µg·h/mL and the volume of distribution ([6]; one report, interpreted as tissue sequestration) was 687 L/m^2. For the same compound, the “beta phase of elimination” value [6, 17] was “approximately 1.5 hours”, the “initial distributive phase of elimination” value [6, 17] was 6 min and the “administered dose found in the urine” value ([6]; trial with doses of 80-250 mg/m^2, after 96 hr) was 3.4±1.1%. The “calculated volume of distribution” value [6, 18] was 42.1 ± 5.9 L/kg, the clearance [6, 18] was 17.425 ± 0.85 mL/min/kg and the initial half-life [6, 18] was 0.6 h. For the same compound, the terminal half-life [6, 18] was 24.7 h, the “t½ α” value [6, 19] was 0.0573 h and the “t½ β” value [6, 19] was 1.33 h. For the same compound, the “t½ γ” value [6, 19] was 26.13 h, the “t½ α” value [6, 20] was 0.1 h and the “t½ β” value [6, 20] was 1.9 h. For the same compound, the “t½ γ” value [6, 20] was 43.9 h, the “t½ α” value [6, 21] was 0.05 h and the “t½ β” value [6, 21] was 1 h. For the same compound, the “t½ γ” value [6, 21] was 8 h, the “bound to plasma proteins” value [7] was “More than 95%” and the maximally tolerated dose ([8]; daily×5, repeat every 4 weeks (Spiegel et al. 1982)) was 80 mg/m^2. The maximally tolerated dose ([8]; monthly (every 3-4 week) (Von Hoff et al., 1981b)) was 260 mg/m^2, the maximally tolerated dose ([8]; monthly, patients with poor bone marrow reserve (Von Hoff et al., 1981b)) was 240 mg/m^2 and the maximally tolerated dose ([8]; weekly×3 (Alberts et al. 1982)) was 200 mg/m^2. For the same compound, the maximally tolerated dose ([8]; weekly×3, patients with poor bone marrow reserve (Alberts et al. 1982)) was 150 mg/mg^2, the maximally tolerated dose ([8]; weekly×3, repeat every 4-5 week (B.-S. Yap et al. 1982)) was 150 mg/m^2 and the “ejection fraction, radioangiocardiographic monitoring” value [9] was “no decrease in ejection fraction”. The electrocardiographic changes [9] was “No patients experienced electrocardiographic changes”.

For `Nc1nc(F)nc2c1ncn2[C@@H]1O[C@H](CO)[C@@H](O)[C@@H]1O` [2-fluoro-ara-A], the “factor of increase of plasma trough levels” value ([10]; 5-day treatment schedule, 25 mg 2-fluoro-ara-AMP/m^2 daily over 30 minutes) is given as “about 2” and the terminal half-life [10] is given as “approximately 20 hours”.

In the case of `Nc1ccn([C@@H]2O[C@H](CO)[C@@H](O)[C@@H]2O)c(=O)n1` [Ara-C, 1β-arabinofuranosylcytosine], the cell proliferation (OCI-AML3 cells) is given as 76%, the cell proliferation (MOLM14 cells) is given as 89% and the “plasma radioactivity accounted for by inactive metabolite ara-U” value ([11]; after the distributive phase) is given as “more than 80%”. The “half-life of initial distributive phase” value ([11]; intravenous, biphasic elimination) was “about 10 minutes” and the “share of urinary radioactivity excreted as ara-U” value ([11]; within 24 hours) was “approximately 90%”.

In the case of ABT199, the cell proliferation (OCI-AML3 cells) is reported as 79%, the cell proliferation (MOLM14 cells) is reported as 77% and the “cleavage of PARP1 and caspase 3” value [12] is reported as “caused cleavage of PARP1”.

In the case of `Nc1nc(Cl)nc2c1ncn2[C@H]1C[C@H](O)[C@@H](CO)O1` [Clad, 2-chloro-6-amino-9-(2-deoxy-β-D-erythropentofuranosyl) purine], the cell proliferation (OCI-AML3 cells) is listed as 87%, the mean terminal half-life ([13]; 2 hour infusion 0.12 mg/kg, normal renal function) is listed as 5.4 h and the mean clearance ([13]; 2 hour infusion 0.12 mg/kg) is listed as 16.3 ± 7.03 mL/min/kg. The “mean steady-state volume of distribution” value ([13]; 2 hour infusion 0.12 mg/kg) was 4.5 ± 2.8 L/kg, the average half-life ([13]; after intravenous administration, multi-exponential decline) was 6.7 ± 2.5 h and the “mean steady-state serum concentration” value [13, 22] was 5.7 ng/mL. The systemic clearance [13, 22] was 11.06 mL/min/kg, the “mean end-of-infusion plasma concentration” value ([13]; hematologic malignancies, 2 hour infusion 0.12 mg/kg) was 48 ± 19 ng/mL and the “apparent volume of distribution” value ([13]; human, in vivo) was “approximately 9 L/kg”. For the same compound, the “cerebrospinal fluid concentrations relative to plasma” value ([13]; one report) was “approximately 25%”.
